Values after ≈ are worked out from the molar mass of the structure shown.
Columns and labels:
[1] = Solubility in phosphate buffer at pH 7.4; assay type: physicochemical
[2] = Bioavailability in rat; assay type: ADME, organism-based; settings: in vivo
[3] = Intrinsic clearance in rat microsomes; assay type: ADME, Microsome; settings: liver microsomes
[4] = Half life in po dosed rat; assay type: ADME, organism-based; settings: in vivo
[5] = Permeability across Caco-2 cell membrane; assay type: ADME, cell-based; settings: human, read-out: permeability
[6] = Clearance in rat; assay type: ADME, organism-based; settings: in vivo

| solubility [1] [µM] | Compound | also measured |
| --- | --- | --- |
| 8 (≈ 3.22 µg/mL) | COC1CCC(C(=O)Nc2cc(-c3ccnc(Nc4ccccc4)c3)ccn2)CC1 (configuration not stated) |  |
|  | O=C(Nc1cc(-c2ccnc(Nc3ccccc3)c2)ccn1)C1CCOC1 (configuration not stated) | bioavailability [2]: 16%; microsomal CLint [3]: 12 µL/min/mg; half-life [4]: 4.7 h; Papp [5]: 29.9 ×10⁻⁶ cm/s; clearance [6]: 30 mL/min/kg |
| 94 (≈ 39.1 µg/mL) | CC(=O)N1CCC(C(=O)Nc2cc(-c3ccnc(Nc4ccccc4)c3)ccn2)CC1 |  |
| 40 (≈ 15.3 µg/mL) | Cc1cnc(C(=O)Nc2cc(-c3ccnc(Nc4ccccc4)c3)ccn2)cn1 |  |
| < 0.1 | Fc1ccc(Nc2cc(-c3ccnc(Nc4ccc(F)cc4)c3)ccn2)cc1 |  |
| 20 (≈ 6.97 µg/mL) | COCCC(=O)Nc1cc(-c2ccnc(Nc3ccccc3)c2)ccn1 |  |
| 17 (≈ 6.25 µg/mL) | O=C(Nc1cc(-c2ccnc(Nc3ccccc3)c2)ccn1)c1cccnc1 |  |
| 4 (≈ 1.43 µg/mL) | O=C(Nc1cc(-c2ccnc(Nc3ccccc3)c2)ccn1)c1ccco1 |  |

— ChEMBL document CHEMBL1139041, “Design and synthesis of 2'-anilino-4,4'-bipyridines as selective inhibitors of c-Jun N-terminal kinase-3” (Bioorg Med Chem Lett, 2006)
